Test system: PC-3 multi-cell spheroids, viability
Experiment: Anticancer human tumor PC-3 cell line growth inhibition [IpAb];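 note: spheroids exposed to compounds for 7 days before readout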;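 for viability, T/C: 100% = DMSO vehicle control wells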
Details: for IC50: curve of first compound; for viability, T/C: stronger effect = lower value
Procedure, shortened: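 Multi-cell spheroids of 60% tumour cells, 25% HUVEC and 15% MSC in ultra-low-attachment U-bottom wells, treated with agents combined with ipatasertib or abemaciclib. Half-log ranges top out near clinical Cmax, or 10 microM when Cmax is unknown.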

[1] = second compound 0.01 µM, first compound 0.0316 µM
[2] = second compound 0.01 µM, first compound 0.1 µM
[3] = second compound 0.0316 µM, first compound 0.0316 µM
[4] = second compound 0.0316 µM, first compound 0.1 µM
[5] = second compound 0.1 µM, first compound 0.0316 µM
[6] = second compound 0.1 µM, first compound 0.1 µM
[7] = second compound 0.316 µM, first compound 0.0316 µM
[8] = second compound 0.316 µM, first compound 0.1 µM
[9] = second compound 1 µM, first compound 0.0316 µM
[10] = second compound 1 µM, first compound 0.1 µM

C=CCn1c(=O)c2cnc(Nc3ccc(N4CCN(C)CC4)cc3)nc2n1-c1cccc(C(C)(C)O)n1 + CCN1CCN(Cc2ccc(Nc3ncc(F)c(-c4cc(F)c5nc(C)n(C(C)C)c5c4)n3)nc2)CC1
IC50 (second compound 0.01 µM): 515 nM
IC50 (second compound 0.0316 µM): 290 nM
IC50 (second compound 0.1 µM): 446 nM
IC50 (second compound 0.316 µM): 450 nM
IC50 (second compound 1 µM): 290 nM
viability, T/C [1]: 66.6%
viability, T/C [2]: 76.6%
viability, T/C (second compound 0.01 µM, first compound 0.316 µM): 53.7%
viability, T/C (second compound 0.01 µM, first compound 1 µM): 42.5%
viability, T/C (second compound 0.01 µM, first compound 3.16 µM): 22%
viability, T/C (second compound 0.01 µM, first compound 10 µM): 27.1%
viability, T/C [3]: 67.4%
viability, T/C [4]: 54.7%
viability, T/C (second compound 0.0316 µM, first compound 0.316 µM): 51.9%
viability, T/C (second compound 0.0316 µM, first compound 1 µM): 39.6%
viability, T/C (second compound 0.0316 µM, first compound 3.16 µM): 24%
viability, T/C (second compound 0.0316 µM, first compound 10 µM): 26.4%
viability, T/C [5]: 59.9%
viability, T/C [6]: 51.2%
viability, T/C (second compound 0.1 µM, first compound 0.316 µM): 52.6%
viability, T/C (second compound 0.1 µM, first compound 1 µM): 41.4%
viability, T/C (second compound 0.1 µM, first compound 3.16 µM): 24%
viability, T/C (second compound 0.1 µM, first compound 10 µM): 24.5%
viability, T/C [7]: 59.6%
viability, T/C [8]: 56.3%
viability, T/C (second compound 0.316 µM, first compound 0.316 µM): 52.2%
viability, T/C (second compound 0.316 µM, first compound 1 µM): 43.2%
viability, T/C (second compound 0.316 µM, first compound 3.16 µM): 26.3%
viability, T/C (second compound 0.316 µM, first compound 10 µM): 24.9%
viability, T/C [9]: 55.7%
viability, T/C [10]: 53.3%
viability, T/C (second compound 1 µM, first compound 0.316 µM): 51.1%
viability, T/C (second compound 1 µM, first compound 1 µM): 38.7%
viability, T/C (second compound 1 µM, first compound 3.16 µM): 31.6%
viability, T/C (second compound 1 µM, first compound 10 µM): 25.1%

CC(C)n1nc(-c2ccc3oc(N)nc3c2)c2c(N)ncnc21 + CCN1CCN(Cc2ccc(Nc3ncc(F)c(-c4cc(F)c5nc(C)n(C(C)C)c5c4)n3)nc2)CC1
IC50 (second compound 0.01 µM): 1.99 nM
IC50 (second compound 0.0316 µM): 2.07 nM
IC50 (second compound 0.1 µM): 1.93 nM
IC50 (second compound 0.316 µM): 1.81 nM
IC50 (second compound 1 µM): 1.14 nM
viability, T/C (second compound 0.01 µM, first compound 0.000316 µM): 81.9%
viability, T/C (second compound 0.01 µM, first compound 0.001 µM): 56.2%
viability, T/C (second compound 0.01 µM, first compound 0.00316 µM): 48.6%
viability, T/C (second compound 0.01 µM, first compound 0.01 µM): 25.9%
viability, T/C [1]: 11%
viability, T/C [2]: 10%
viability, T/C (second compound 0.0316 µM, first compound 0.000316 µM): 55.2%
viability, T/C (second compound 0.0316 µM, first compound 0.001 µM): 55.7%
viability, T/C (second compound 0.0316 µM, first compound 0.00316 µM): 47%
viability, T/C (second compound 0.0316 µM, first compound 0.01 µM): 18.6%
viability, T/C [3]: 11.7%
viability, T/C [4]: 9.52%
viability, T/C (second compound 0.1 µM, first compound 0.000316 µM): 59.1%
viability, T/C (second compound 0.1 µM, first compound 0.001 µM): 54.8%
viability, T/C (second compound 0.1 µM, first compound 0.00316 µM): 45.7%
viability, T/C (second compound 0.1 µM, first compound 0.01 µM): 20%
viability, T/C [5]: 11.2%
viability, T/C [6]: 9.73%
viability, T/C (second compound 0.316 µM, first compound 0.000316 µM): 65.3%
viability, T/C (second compound 0.316 µM, first compound 0.001 µM): 61.8%
viability, T/C (second compound 0.316 µM, first compound 0.00316 µM): 39.2%
viability, T/C (second compound 0.316 µM, first compound 0.01 µM): 20.1%
viability, T/C [7]: 13.7%
viability, T/C [8]: 10.8%
viability, T/C (second compound 1 µM, first compound 0.000316 µM): 55.4%
viability, T/C (second compound 1 µM, first compound 0.001 µM): 54.3%
viability, T/C (second compound 1 µM, first compound 0.00316 µM): 35.3%
viability, T/C (second compound 1 µM, first compound 0.01 µM): 24.1%
viability, T/C [9]: 15.7%
viability, T/C [10]: 13.8%

Source: PubChem BioAssay AID2060327 (Molecular Pharmacology Branch, DTP, NCI, 2025)
